# Measurements as given in patent US20220016101A1 (ACADIA Pharmaceuticals Inc., priority 2018, published 2022).
# Test system: patients with MDD and an inadequate response to an SSRI or SNRI
# Experiment: Massachusetts General Hospital Sexual Functioning Index (MGH-SFI), Study ACP-103-042
# Assay type: in vivo, human
# Description: “Massachusetts General Hospital Sexual Functioning Index (MGH-SFI)” is described, for instance, in Labbate and Lare, 2001, Psychother Psychosom. 70(4):221-225. This is a patient facing questionnaire that quantifies sexual dysfunction into 5 functional domains (“interest in sex,” “sexual arousal,” “ability to achieve orgasm,” “ability to maintain erection” (males only), and “sexual satisfaction”). Patients rate each item using a 6-point scale ranging from 1 (good function) to 6 (poor function). High scores indicate poor sexual functioning. […] The determination of the subject's status and eligibility for randomization in Stage 2 was made in a double-blind manner. […] Sexual functioning was assessed using the Massachusetts General Hospital Sexual Functioning Index or MGH-SFI (Labbate and Lare, 2001, Psychother Psychosom. 70(4):221-225). This is a patient facing questionnaire that quantifies sexual dysfunction into 5 functional domains (“interest in sex,” “sexual arousal,” “ability to achieve orgasm,” “ability to maintain erection” [malesonly], and “sexual satisfaction”). Patients rate each item using a 6-point scale ranging from 1 (good function) to 6 (poor function). The time frame for this scale is the past month. This scale was administered at baseline and Week 5 in both stages of the study. High scores indicate poor sexual functioning. In ACP-103-042 the mean scores for MGH-SFI at Baseline was calculated over all 5 domains for males and the 4 domains for females. For MGH-SFI (follow-up version) at Study Weeks 5 and 10, the mean was calculated in the same way as MGH-SFI at Baseline. […] Tables 10-27 summarize the detailed data of MGH-SFI individual items of the overall study group (Tables 10-15), the subgroup of age of <=50 (Tables 16-21) and the subgroup of age of >50 (Table 21-26). In Tables 9-26, ANCOVA=analysis of covariance; OC=observed cases; LSM=least squares mean; CI=confidence interval; SD=standard deviation; SE=standard error. Stage 1: Baseline=Study Week 0, Week 5=Study Week 5; Stage 2: Baseline=Study Week 5, Week 5=Study Weeks 10. LSM from the stage-specific ANCOVA analysis with the change from baseline as the outcome, treatment group as a factor, and the corresponding Baseline value as a covariate. 2-sided p-value for treatment difference from the stage-specific ANCOVA analysis. An treatment effect size (Cohen's d) is calculated using the formula: Effect Size=Least Square mean difference between PIM and PBO/SD. The corresponding 95% confidence interval for an effect size is calculated based on the theoretical probability distribution of the effect size. […] Tables 10-15 and 28-38 summarize the detailed data of MGH-SFI individual items of the overall study group (Tables 10-15), the female subgroup (Tables 33-37) and the male subgroup (Table 38-43). An treatment effect size (Cohen's d) is calculated using the formula: Effect Size=Least Square mean difference between PIM and PBO/SD. The corresponding 95% confidence interval for an effect size is calculated based on the theoretical probability distribution of the effect size. In Tables 10-15 and 28-38, ANCOVA=analysis of covariance; OC=observed cases; LSM=least squares mean; CI=confidence interval; SD=standard deviation; SE=standard error. Stage 1: Baseline=Study Week 0, Week 5=Study Week 5; Stage 2: Baseline=Study Week 5, Week 5=Study Weeks 10. LSM from the stage-specific ANCOVA analysis with the change from baseline as the outcome, treatment group as a factor, and the corresponding Baseline value as a covariate. 2-sided p-value for treatment difference from the stage-specific ANCOVA analysis. An treatment effect size (Cohen's d) is calculated using the formula: Effect Size=Least Square mean difference between PIM and PBO/SD. The corresponding 95% confidence interval for an effect size is calculated based on the theoretical probability distribution of the effect size.
# [1] = male subgroup, Stage 2, PIM 34 mg
# [2] = male subgroup, Stage 2, PIM 34 mg vs placebo, change from baseline to Week 5
# [3] = male subgroup, Stage 2, PIM 34 mg, Week 5
# [4] = subgroup <=50 years old, Stage 1, PIM 34 mg
smiles,measurement,setting,value
"CC(C)COc1ccc(CNC(=O)N(Cc2ccc(F)cc2)C2CCN(C)CC2)cc1 [pimavanserin, N-(4-Fluorophenylmethyl)-N-(1-methylpiperidin-4-yl)-N′-(4-(2-methylpropyloxy)phenylmethyl)carbamide]","MGH-SFI Item 02: Ability to Get Sexually Aroused or Excited, Change from Baseline to Week 5, Median",[1],−1.0
same,"MGH-SFI Item 03: Ability to Achieve Orgasm, Change from Baseline to Week 5, Mean (SE)",[1],−0.8 (0.36)
same,"MGH-SFI Item 03: Ability to Achieve Orgasm, Change from Baseline to Week 5, Median",[1],0.0
same,"MGH-SFI Item 04: (Men) Ability to Get and Maintain an Erection, Change from Baseline to Week 5, Mean (SE)",[1],−1.0 (0.41)
same,"MGH-SFI Item 04: (Men) Ability to Get and Maintain an Erection, Change from Baseline to Week 5, Median",[1],−1.0
same,"MGH-SFI Item 05: Overall Sexual Satisfaction, Change from Baseline to Week 5, Mean (SE)",[1],−1.4 (0.50)
same,"MGH-SFI Item 05: Overall Sexual Satisfaction, Change from Baseline to Week 5, Median",[1],−1.0
same,"MGH-SFI Item 06: Overall Improvement Since Last Medication Change, Effect Size (Cohen's d)","male subgroup, Stage 2, PIM 34 mg vs placebo, Week 5",0.405
same,"MGH-SFI Item 02: Ability to Get Sexually Aroused or Excited, Effect Size (Cohen's d)",[2],−0.154
same,"MGH-SFI Item 03: Ability to Achieve Orgasm, Effect Size (Cohen's d)",[2],0.497
same,"MGH-SFI Item 04: (Men) Ability to Get and Maintain an Erection, Effect Size (Cohen's d)",[2],0.701
same,"MGH-SFI Item 05: Overall Sexual Satisfaction, Effect Size (Cohen's d)",[2],0.511
same,"MGH-SFI Item 02: Ability to Get Sexually Aroused or Excited, Week 5, Mean (SE)",[3],3.6 (0.47)
same,"MGH-SFI Item 02: Ability to Get Sexually Aroused or Excited, Week 5, Median",[3],4.0
same,"MGH-SFI Item 03: Ability to Achieve Orgasm, Week 5, Mean (SE)",[3],3.6 (0.56)
same,"MGH-SFI Item 03: Ability to Achieve Orgasm, Week 5, Median",[3],4.0
same,"MGH-SFI Item 04: (Men) Ability to Get and Maintain an Erection, Week 5, Mean (SE)",[3],3.1 (0.54)
same,"MGH-SFI Item 04: (Men) Ability to Get and Maintain an Erection, Week 5, Median",[3],4.0
same,"MGH-SFI Item 05: Overall Sexual Satisfaction, Week 5, Mean (SE)",[3],3.0 (0.53)
same,"MGH-SFI Item 05: Overall Sexual Satisfaction, Week 5, Median",[3],3.0
same,"MGH-SFI Item 06: Overall Improvement Since Last Medication Change, Week 5, Mean (SE)",[3],3.7 (0.53)
same,"MGH-SFI Item 06: Overall Improvement Since Last Medication Change, Week 5, Median",[3],4.0
same,"MGH-SFI 01: Interest in Sex, Effect Size (Cohen's d)","male subgroup, Stage 2, positive = pimavanserin better than placebo",0.174
same,"MGH-SFI Items 1, 2, 3, and 5 mean change from baseline to Week 5 vs placebo",overall study group,significantly greater
same,"MGH-SFI 04: (Men) Ability to Get and Maintain an Erection, Change from Baseline to Week 5 Mean (SE)",[4],−1.7 (1.45)
same,"MGH-SFI 04: (Men) Ability to Get and Maintain an Erection, Change from Baseline to Week 5 Median",[4],−2.0
same,"MGH-SFI 04: (Men) Ability to Get and Maintain an Erection, Week 5 Mean (SE)",[4],2.3 (0.67)
same,"MGH-SFI 04: (Men) Ability to Get and Maintain an Erection, Week 5 Median",[4],3.0
same,"MGH-SFI 05: Overall Sexual Satisfaction, Change from Baseline to Week 5 Mean (SE)",[4],−0.5 (0.35)
same,"MGH-SFI 05: Overall Sexual Satisfaction, Change from Baseline to Week 5 Median",[4],0.0
same,"MGH-SFI 05: Overall Sexual Satisfaction, Week 5 Mean (SE)",[4],3.6 (0.43)
same,"MGH-SFI 05: Overall Sexual Satisfaction, Week 5 Median",[4],4.0
same,"MGH-SFI 06: Overall Improvement Since Last Medication Change, Week 5 Mean (SE)",[4],3.0 (0.24)
same,"MGH-SFI 06: Overall Improvement Since Last Medication Change, Week 5 Median",[4],3.0
same,"MGH-SFI 04: (Men) Ability to Get and Maintain an Erection, Effect Size (Cohen's d)","subgroup <=50 years old, Stage 1, PIM 34 mg vs placebo",0.877
